According to patent US4206221A, “Cephalomannine and its use in treating leukemic tumors” (priority 1979, dated 1980):
≈ marks a conversion by molar mass, not a printed value. Read-outs that look alike come from different tables or passages of the source.

Legend:
leukemia [1] = test: activity against leukemia in animals (general statement); details: in vivo
KB cell culture = test: cells; format: cell-based; details: for IC50: Homo sapiens, KB, 72 h, read-out: ED 50 (dose that inhibits growth to 50% of control growth); for activity in KB cell culture (in words): assay of extract and of fractions during isolation
Procedure: The chemotherapeutic activities of the fractions obtained in the isolation procedure may be determined by a KB Cell Culture Screen in accordance with the National Cancer Institute Protocol 1.600 [Geran et al., Cancer Chemother. Rep., Part 3, 3: 17 (1972)]. […] Such a dose is referred to as ED 50 and activity is indicated for ED 50 levels of ≤30 μg./ml.

[2] = test system: lymphocytic leukemia cells of the strain P388; test: P388 lymphocytic leukemia implanted in mice, survival time (T/C), National Cancer Institute Protocol 1.200; format: in vivo; details: intraperitoneal, once a day for 9 days, female DBA/2 mice, 125% or above considered active
Source text: The effectiveness of alkaloid compounds against lymphocytic leukemia cells of the strain P388 implanted in mice is another method of determining activity. These assays are made according to the National Cancer Institute Protocol 1.200 described in Geran et al. referred to above. The usefulness of cephalomannine as compared to taxol was ascertained by assaying Fractions K263 and K264 from Example 1 by this procedure. Starting 24 hr. after the tumor implantation, previously determined dosages of each compound were injected intraperitoneally once a day for 9 days. Survival time of treated leukemic mice is compared to that of untreated leukemic mice (T/C×100). A T/C value of 100% indicated no activity. A T/C value greater than 100% means that the treated mice are surviving longer than the control mice. A compound giving a T/C value greater than 125% is indicative of activity as defined by the NCI Protocols, above.
^1 All mice were female, DBA/2.
^2 The injection vehicle was saline + Tween 80 + alcohol.
^3 One intraperitoneal injection per day for 9 days.
^4 T/C = mean survival time of test animals/mean survival time of […]

leukemia [3] = details: background, literature; cited from earlier work

CC=C(C)C(=O)NC(c1ccccc1)C(O)C(=O)O[C@H]1C[C@@]2(O)[C@@H](OC(=O)c3ccccc3)[C@@H]3[C@]4(OC(C)=O)CO[C@@H]4C[C@H](O)[C@@]3(C)C(=O)[C@H](OC(C)=O)C(=C1C)C2(C)C (single isomer, unassigned) [cephalomannine]
activity against leukemia in animals (in words) (leukemia [1]): demonstrates activity against leukemia in animals
IC50 (KB cell culture): 3.8 ng/mL (≈ 4.57 nM)
activity in KB cell culture (in words) (KB cell culture): showed activity
T/C (mean survival time of test animals/mean survival time of control animals) ([2]; 1.00 mg./kg./inj.): 152%
T/C (mean survival time of test animals/mean survival time of control animals) ([2]; 1.40 mg./kg./inj.): 159%
T/C (mean survival time of test animals/mean survival time of control animals) ([2]; 2.20 mg./kg./inj.): 162%
T/C (mean survival time of test animals/mean survival time of control animals) ([2]; 3.30 mg./kg./inj.): 180%

CC(=O)O[C@H]1C(=O)[C@@]2(C)[C@H]([C@H](OC(=O)c3ccccc3)[C@]3(O)C[C@H](OC(=O)C(O)C(NC(=O)c4ccccc4)c4ccccc4)C(C)=C1C3(C)C)[C@]1(OC(C)=O)CO[C@@H]1C[C@@H]2O (single isomer, unassigned) [taxol, reference compound]
IC50 (KB cell culture; 3 days after drug addition, active if ED 50 ≤30 μg./ml.): 1.2 ng/mL (≈ 1.41 nM)
activity in KB cell culture (in words) (KB cell culture): showed activity
antileukemic / antitumor / chemotherapeutic activity (in words) (leukemia [3]): antileukemic and antitumor agent
T/C (mean survival time of test animals/mean survival time of control animals) ([2]; 1.40 mg./kg./inj.): 148%
T/C (mean survival time of test animals/mean survival time of control animals) ([2]; 2.20 mg./kg./inj.): 152%
